For 20 compounds, IC50 and inhibition results are on record in the Kinase Knowledgebase extract (Sharma et al. 2016).

The structures appear in SMILES notation.

One may read the IC50 as the concentration that inhibits the measured activity by half. The low end stands for greater potency, the high end for weaker potency. By inhibition is commonly meant how much of the control response was suppressed.

The target in one test is EGFR (human) (UniProt P00533). The conditions noted are these: nci-h1975.
Sequence of EGFR (human) (P00533 whole entry, looked up): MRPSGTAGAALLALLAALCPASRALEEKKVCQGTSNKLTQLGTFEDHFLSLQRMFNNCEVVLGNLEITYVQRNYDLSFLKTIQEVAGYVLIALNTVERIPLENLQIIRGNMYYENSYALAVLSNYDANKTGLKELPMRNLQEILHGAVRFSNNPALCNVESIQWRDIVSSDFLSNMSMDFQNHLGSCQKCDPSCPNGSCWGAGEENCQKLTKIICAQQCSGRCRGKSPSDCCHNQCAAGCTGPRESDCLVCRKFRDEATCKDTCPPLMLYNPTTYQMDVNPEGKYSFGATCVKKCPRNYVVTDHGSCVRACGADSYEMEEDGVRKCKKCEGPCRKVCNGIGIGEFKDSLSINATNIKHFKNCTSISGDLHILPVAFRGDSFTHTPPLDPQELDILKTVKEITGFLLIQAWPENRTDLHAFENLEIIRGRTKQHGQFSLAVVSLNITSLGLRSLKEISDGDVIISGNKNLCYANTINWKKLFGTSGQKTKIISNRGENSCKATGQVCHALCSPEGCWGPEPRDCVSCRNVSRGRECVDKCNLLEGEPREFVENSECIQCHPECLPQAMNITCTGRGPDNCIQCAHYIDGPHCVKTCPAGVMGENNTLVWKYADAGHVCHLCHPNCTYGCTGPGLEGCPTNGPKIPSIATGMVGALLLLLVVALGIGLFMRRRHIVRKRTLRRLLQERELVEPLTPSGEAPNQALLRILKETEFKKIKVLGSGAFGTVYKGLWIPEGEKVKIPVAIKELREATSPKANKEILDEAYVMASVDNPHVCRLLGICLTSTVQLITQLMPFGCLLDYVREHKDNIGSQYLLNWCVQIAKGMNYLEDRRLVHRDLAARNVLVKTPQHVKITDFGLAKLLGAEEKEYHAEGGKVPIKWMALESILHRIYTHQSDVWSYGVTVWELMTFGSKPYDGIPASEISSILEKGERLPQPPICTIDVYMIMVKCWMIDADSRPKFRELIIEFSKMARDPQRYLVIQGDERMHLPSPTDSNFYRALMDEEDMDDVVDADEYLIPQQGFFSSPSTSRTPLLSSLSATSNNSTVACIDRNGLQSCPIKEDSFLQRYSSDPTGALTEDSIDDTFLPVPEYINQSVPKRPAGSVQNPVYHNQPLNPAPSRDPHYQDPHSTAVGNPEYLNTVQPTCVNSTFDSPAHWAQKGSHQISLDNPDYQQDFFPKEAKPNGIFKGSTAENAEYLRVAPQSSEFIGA
The compound `CC(Nc1ncnc2[nH]c(-c3ccc(O)cc3)cc12)c1ccccc1` (stereo not given) gave an IC50 of 8 µM.

The test is the same for the next values; noted with them: nci-h1975, concentration not given here.
`NC(=O)Nc1sc(-c2ccc(F)cc2)cc1C(N)=O` returned an inhibition of 35%.
Still for that read-out and setting: as for `Cc1ccc(NC(=O)c2ccc(CN3CCN(C)CC3)cc2)cc1Nc1nccc(-c2cccnc2)n1`, the figure is below 25%; as for `Cc1cc(C)c(/C=C2\C(=O)Nc3ccc(Cl)cc32)[nH]1`, below 25%; as for `Cn1cc(C2=C(c3ccc(Cl)cc3Cl)C(=O)NC2=O)c2ccccc21`, 37%.
Same read-out and setting: as for `CC(C)(C)c1cnc(CSc2cnc(NC(=O)C3CCNCC3)s2)o1`, the figure is 63%; as for `COc1cc2ncnc(Nc3ccc(OCc4ccccc4)cc3)c2cc1OC`, below 25%; as for `Cc1ccc(NC(=O)c2cccc(N(C)C)c2)cc1NC(=O)c1ccc(O)cc1`, below 25%.
Regarding `O=C1NC(=O)C(c2ccccc2[N+](=O)[O-])=C1Nc1ccc(O)c(Cl)c1`, the inhibition is below 25%.
On the same count and under the same terms, as for `O=C1Nc2ccc(I)cc2/C1=C\c1cc(Br)c(O)c(Br)c1`, the figure is below 25%; as for `CC(C)[C@H](CO)Nc1nc(Nc2ccc(C(=O)O)c(Cl)c2)c2ncn(C(C)C)c2n1`, below 25%.
For the compound `O=C(Nc1cc(C(F)(F)F)cc(C(F)(F)F)c1)c1cc(Cl)ccc1O`, the inhibition worked out at 76%.
The same measure, in the same setting: as for `COc1cccc(-c2cc(=O)c3ccccc3o2)c1N`, the figure is below 25%; as for `OCCC#Cc1nc(-c2ccc(F)cc2)c(-c2ccncc2)n1CCCc1ccccc1`, below 25%.
Still for that read-out and setting: as for `CC(C)(C)c1nc2c3ccc(F)cc3c3c(=O)[nH]ccc3c2[nH]1`, the figure is below 25%; as for `Cc1cc(Nc2ncc3cc(-c4c(Cl)cccc4Cl)c(=O)n(C)c3n2)ccc1F`, 55%.
The same measure, in the same setting: as for `Cc1cc(Nc2cc(N3CCN(C)CC3)nc(Sc3ccc(NC(=O)C4CC4)cc3)n2)[nH]n1`, the figure is 34%; as for `c1ccc(-c2n[nH]cc2-c2ccnc3ccccc23)nc1`, below 25%; as for `CC(C)(C)n1nc(-c2cccc3ccccc23)c2c(N)ncnc21`, 60%.
On to `O=c1ncn2nc(Sc3ccc(F)cc3F)ccc2c1-c1c(Cl)cccc1Cl`, for which the inhibition is below 25%.
